Experimental data as given in US4859678A, “N-oxide ergolines as antihypertensive agents” (Farmitalia Carlo Erba, priority 1987, dated 1989).

Tested on: mean blood pressure
Experiment: Antihypertensive activity: intra-arterial mean blood pressure after single oral dose in rats
Type: in vivo
Conditions: rat, p.o.; for ED (25 mmHg): po, read-out: ED25 (dose lowering mean blood pressure of 25 mmHg); for ED (25 mmHg) / ED25 (dose lowering mean blood pressure of 25 mmHg): single dose, calculated from dose-response regression line; for Decrease in mean blood pressure at 15' / Decrease in mean blood pressure at 30' / Decrease in mean blood pressure at 1 h / Decrease in mean blood pressure at 2 h / Decrease in mean blood pressure at 3 h / Decrease in mean blood pressure at 4 h / Decrease in mean blood pressure at 5 h / Decrease in mean blood pressure at 6 h / Decrease in mean blood pressure at 8 h / Decrease in mean blood pressure at 10 h / Decrease in mean blood pressure at 12 h: ex 40 0.125, Example 1 0.5, ex 41 0.25, Example 2 1 mg/kg; for Decrease in mean blood pressure at 15': 15 min, not significant (**): Example 1; for Decrease in mean blood pressure at 30': 30 min; for Decrease in mean blood pressure at 6 h: not significant (**): ex 41; for Decrease in mean blood pressure at 8 h / Decrease in mean blood pressure at 10 h / Decrease in mean blood pressure at 12 h: not significant (**): ex 40, ex 41
Protocol: Intrarterial measurements of mean blood pressure (MBP) were performed through catheters (PE 50, Clay Adams) implanted in the rat right carotid artery under halothane anesthesia. Twenty four hours after surgery, the animals were placed in Ballman cages and the arterial cannula was connected via a pressure transducer to a Beckman blood pressure recorder for continuous monitoring of mean blood pressure. MBP was recorded before the oral administration (basal values) and at 15-30-60-120-240 minutes until 12 hours after treatment. Groups of 7 to 8 rats were orally treated with a single dose of the test compound of vehicle, methocel 0.5% w/v (0.2 ml/100 g b.w.). The ED25 was calculated for each compound from the dose-response regression line.
As reference standard drugs, two prior art ergoline derivatives described by EP 0126968 were also tested.
In fact, the mean blood pressure decrease induced by the two derivatives of the present invention was still significant 10 to 12 hours after dosing, whereas with the prior art compounds the hypotensive effect lasted only 5 to 6 hours. The oral orientative acute toxicity (LD50) in mice (evaluated in the Irwin test) of the compounds of the formula I was higher than 800 mg/kg.

Row | Compound | ED (25 mmHg) [mg/kg] | Decrease in mean blood pressure at 15' | Decrease in mean blood pressure at 30' | Decrease in mean blood pressure at 1 h | Decrease in mean blood pressure at 2 h | Decrease in mean blood pressure at 3 h | Decrease in mean blood pressure at 4 h | Decrease in mean blood pressure at 5 h | Decrease in mean blood pressure at 6 h | Decrease in mean blood pressure at 8 h | Decrease in mean blood pressure at 10 h | Decrease in mean blood pressure at 12 h | ED25 (dose lowering mean blood pressure of 25 mmHg) [mg/Kg^-1]
1 | C[N+]1([O-])C[C@H](CN2CC(=O)NC2=O)C=C2c3cccc4[nH]cc(c34)C[C@H]21 (stereo partly drawn) [Example 2, 1-[(6-methyl -Δ-9,10-ergolen-8β-yl)methyl]-2,4-imidazolidinedione-N6-oxide] | 0.198 | -23.1 ΔmmHg | -27.5 ΔmmHg | -35.9 ΔmmHg | -34.1 ΔmmHg | -35.0 ΔmmHg | -38.4 ΔmmHg | -36.5 ΔmmHg | -34.1 ΔmmHg | -27.8 ΔmmHg | -22.5 ΔmmHg | -16.2 ΔmmHg | –
2 | 1-[6-methyl -Δ- 9,10-ergolen -8β- yl)methyl]-2,4-(1H,3H)dihydro-pyrimidinedione-N6-oxide [Example 1] | – | -12.2 ΔmmHg | -21.0 ΔmmHg | -32.2 ΔmmHg | -35.5 ΔmmHg | -45.1 ΔmmHg | -55.1 ΔmmHg | -58.5 ΔmmHg | -54.3 ΔmmHg | -44.3 ΔmmHg | -35.5 ΔmmHg | -27.2 ΔmmHg | 0.050
3 | CN1C[C@H](CN2CC(=O)NC2=O)C=C2c3cccc4[nH]cc(c34)C[C@H]21 [Standard, ex 41 of EP 0126968, 1-[(6-methyl-Δ-9,10-ergolen-8β-yl)methyl]-2,4-imidazolidinedione] | 0.19 | -26.8 ΔmmHg | -31.4 ΔmmHg | -29.6 ΔmmHg | -37.5 ΔmmHg | -35.7 ΔmmHg | -31.4 ΔmmHg | -15.7 ΔmmHg | -14.6 ΔmmHg | -2.5 ΔmmHg | -6.5 ΔmmHg | -9.4 ΔmmHg | –
4 | CN1C[C@H](Cn2ccc(=O)[nH]c2=O)C=C2c3cccc4[nH]cc(c34)C[C@H]21 [Standard, ex 40 of EP 0126968, 1-[(6-methy -Δ-9,10-ergolen-8β-yl)methyl]-2,4-(1H,3H)dihydro-pyrimidine diole] | – | -22.9 ΔmmHg | -34.5 ΔmmHg | -33.9 ΔmmHg | -37.3 ΔmmHg | -34.5 ΔmmHg | -42.7 ΔmmHg | -28.9 ΔmmHg | -25.5 ΔmmHg | -10.5 ΔmmHg | -7.3 ΔmmHg | -6.7 ΔmmHg | 0.046
